# Experimental data published in PubChem BioAssay (NCI).
#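 Step 1: Grow cells in 96-well plates. Step 2: Expose to compound for 48 hours at 5 concentrations. Step 3: Interpolate endpoints linearly; if unreached, use highest concentration. TGI: concentration producing complete growth inhibition.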
# What was measured:
# Assay in all cases: NCI-60 cell line screen, 48 h
# SN12C renal = system: SN12C renal
# MDA-MB-435 = system: MDA-MB-435
# UACC-257 melanoma = system: UACC-257 melanoma
# LOX IMVI melanoma = system: LOX IMVI melanoma
# U251 CNS = system: U251 CNS
# SK-MEL-5 melanoma = system: SK-MEL-5 melanoma
# SNB-75 CNS = system: SNB-75 CNS
# MDA-N = system: MDA-N
# SW-620 colon = system: SW-620 colon
# OVCAR-8 ovarian = system: OVCAR-8 ovarian
# SR leukemia = system: SR leukemia
# SF-539 CNS = system: SF-539 CNS
# KM12 colon = system: KM12 colon
# IGROV1 ovarian = system: IGROV1 ovarian
# COLO 205 colon = system: COLO 205 colon
# NCI-H226 lung = system: NCI-H226 lung
# TK-10 renal = system: TK-10 renal
# SK-MEL-28 melanoma = system: SK-MEL-28 melanoma
# MDA-MB-231 breast = system: MDA-MB-231 breast
# OVCAR-5 ovarian = system: OVCAR-5 ovarian
# NCI/ADR-RES ovarian = system: NCI/ADR-RES ovarian
# HS 578T breast = system: HS 578T breast
# RXF 393 renal = system: RXF 393 renal
# NCI-H460 lung = system: NCI-H460 lung
# OVCAR-3 ovarian = system: OVCAR-3 ovarian
# SNB-19 CNS = system: SNB-19 CNS
# CCRF-CEM leukemia = system: CCRF-CEM leukemia
# HCC-2998 colon = system: HCC-2998 colon
# A549 NSCLC = system: A549 NSCLC
# SF-295 CNS = system: SF-295 CNS
# M14 melanoma = system: M14 melanoma
# SK-OV-3 ovarian = system: SK-OV-3 ovarian
# MALME-3M melanoma = system: MALME-3M melanoma
# RPMI-8226 leukemia = system: RPMI-8226 leukemia
# UACC-62 melanoma = system: UACC-62 melanoma
# HCT-116 colon = system: HCT-116 colon
# HCT-15 colon = system: HCT-15 colon
# EKVX NSCLC = system: EKVX NSCLC
# ACHN renal = system: ACHN renal
# T-47D breast = system: T-47D breast
# 786-0 renal = system: 786-0 renal
# NCI-H522 lung = system: NCI-H522 lung
# PC-3 prostate = system: PC-3 prostate
# DU-145 prostate = system: DU-145 prostate
# SK-MEL-2 melanoma = system: SK-MEL-2 melanoma
# K-562 leukemia = system: K-562 leukemia
# HT29 colon = system: HT29 colon
# A498 renal = system: A498 renal
# HL-60(TB) leukemia = system: HL-60(TB) leukemia
# OVCAR-4 ovarian = system: OVCAR-4 ovarian
# NCI-H23 lung = system: NCI-H23 lung
# SF-268 CNS = system: SF-268 CNS
# CAKI-1 renal = system: CAKI-1 renal
# HOP-62 NSCLC = system: HOP-62 NSCLC
# MCF7 breast = system: MCF7 breast
# MOLT-4 leukemia = system: MOLT-4 leukemia
# HOP-92 NSCLC = system: HOP-92 NSCLC
# UO-31 renal = system: UO-31 renal
compound,measurement,setting,value
N#CC(=N)c1ncn(CCO)c1NC(=O)C(F)(F)F,TGI,SN12C renal,> 100 µM
same,TGI,MDA-MB-435,> 100 µM
same,TGI,UACC-257 melanoma,> 100 µM
same,TGI,LOX IMVI melanoma,> 100 µM
same,TGI,U251 CNS,> 100 µM
same,TGI,SK-MEL-5 melanoma,> 100 µM
same,TGI,SNB-75 CNS,> 100 µM
same,TGI,MDA-N,> 100 µM
same,TGI,SW-620 colon,> 100 µM
same,TGI,OVCAR-8 ovarian,> 100 µM
same,TGI,SR leukemia,> 100 µM
same,TGI,SF-539 CNS,> 100 µM
same,TGI,KM12 colon,> 100 µM
same,TGI,IGROV1 ovarian,> 100 µM
same,TGI,COLO 205 colon,> 100 µM
same,TGI,NCI-H226 lung,> 100 µM
same,TGI,TK-10 renal,> 100 µM
same,TGI,SK-MEL-28 melanoma,> 100 µM
same,TGI,MDA-MB-231 breast,> 100 µM
same,TGI,OVCAR-5 ovarian,> 100 µM
same,TGI,NCI/ADR-RES ovarian,> 100 µM
same,TGI,HS 578T breast,> 100 µM
same,TGI,RXF 393 renal,> 100 µM
same,TGI,NCI-H460 lung,> 100 µM
same,TGI,OVCAR-3 ovarian,> 100 µM
same,TGI,SNB-19 CNS,> 100 µM
same,TGI,CCRF-CEM leukemia,> 100 µM
same,TGI,HCC-2998 colon,> 100 µM
same,TGI,A549 NSCLC,> 100 µM
same,TGI,SF-295 CNS,> 100 µM
same,TGI,M14 melanoma,> 100 µM
same,TGI,SK-OV-3 ovarian,> 100 µM
same,TGI,MALME-3M melanoma,> 100 µM
same,TGI,RPMI-8226 leukemia,> 100 µM
same,TGI,UACC-62 melanoma,> 100 µM
same,TGI,HCT-116 colon,> 100 µM
same,TGI,HCT-15 colon,> 100 µM
same,TGI,EKVX NSCLC,> 100 µM
same,TGI,ACHN renal,> 100 µM
same,TGI,T-47D breast,> 100 µM
same,TGI,786-0 renal,> 100 µM
same,TGI,NCI-H522 lung,> 100 µM
same,TGI,PC-3 prostate,> 100 µM
same,TGI,DU-145 prostate,> 100 µM
same,TGI,SK-MEL-2 melanoma,> 100 µM
same,TGI,K-562 leukemia,> 100 µM
same,TGI,HT29 colon,> 100 µM
same,TGI,A498 renal,> 100 µM
same,TGI,HL-60(TB) leukemia,> 100 µM
same,TGI,OVCAR-4 ovarian,> 100 µM
same,TGI,NCI-H23 lung,> 100 µM
same,TGI,SF-268 CNS,> 100 µM
same,TGI,CAKI-1 renal,> 100 µM
same,TGI,HOP-62 NSCLC,> 100 µM
COc1c2c(cc3nc4ccccc4nc13)CC[C@H](NC(C)=O)c1cc(=O)c(SC)ccc1-2,TGI,SN12C renal,34.2 µM
same,TGI,UACC-257 melanoma,30.5 µM
same,TGI,LOX IMVI melanoma,> 71.6 µM
same,TGI,MCF7 breast,> 100 µM
same,TGI,U251 CNS,10.6 µM
same,TGI,SK-MEL-5 melanoma,10.8 µM
same,TGI,MDA-N,0.329 µM
same,TGI,MOLT-4 leukemia,> 65.4 µM
same,TGI,SW-620 colon,> 100 µM
same,TGI,OVCAR-8 ovarian,> 32.7 µM
same,TGI,SR leukemia,> 32.5 µM
same,TGI,SF-539 CNS,5.28 µM
same,TGI,KM12 colon,3 µM
same,TGI,IGROV1 ovarian,4.36 µM
same,TGI,COLO 205 colon,3.31 µM
same,TGI,NCI-H226 lung,32.2 µM
same,TGI,TK-10 renal,> 59.3 µM
same,TGI,SK-MEL-28 melanoma,> 100 µM
same,TGI,MDA-MB-231 breast,36.1 µM
same,TGI,OVCAR-5 ovarian,> 100 µM
same,TGI,NCI/ADR-RES ovarian,> 100 µM
same,TGI,HS 578T breast,0.7 µM
same,TGI,RXF 393 renal,> 49.9 µM
same,TGI,NCI-H460 lung,> 100 µM
same,TGI,OVCAR-3 ovarian,> 100 µM
same,TGI,SNB-19 CNS,> 100 µM
same,TGI,CCRF-CEM leukemia,> 100 µM
same,TGI,HCC-2998 colon,> 24.6 µM
same,TGI,A549 NSCLC,> 100 µM
same,TGI,SF-295 CNS,> 44.6 µM
same,TGI,M14 melanoma,19.3 µM
same,TGI,SK-OV-3 ovarian,> 70.9 µM
same,TGI,RPMI-8226 leukemia,> 100 µM
same,TGI,UACC-62 melanoma,44.6 µM
same,TGI,HCT-116 colon,27.3 µM
same,TGI,HCT-15 colon,19 µM
same,TGI,EKVX NSCLC,8.63 µM
same,TGI,ACHN renal,> 64.5 µM
same,TGI,786-0 renal,39.8 µM
same,TGI,NCI-H522 lung,1.69 µM
same,TGI,PC-3 prostate,> 69.6 µM
same,TGI,DU-145 prostate,51.3 µM
same,TGI,SK-MEL-2 melanoma,> 55.2 µM
same,TGI,K-562 leukemia,> 42.2 µM
same,TGI,HT29 colon,6.23 µM
same,TGI,HOP-92 NSCLC,> 55.9 µM
same,TGI,A498 renal,> 90.9 µM
same,TGI,OVCAR-4 ovarian,38.7 µM
same,TGI,NCI-H23 lung,0.777 µM
same,TGI,SF-268 CNS,> 56.5 µM
same,TGI,UO-31 renal,28.7 µM
same,TGI,CAKI-1 renal,> 42.6 µM
same,TGI,HOP-62 NSCLC,> 100 µM
